Results on 19 molecules are retold here after patent US8574563B2 (Bristol-Myers Squibb Company, priority 2006, dated 2013).

In the first test the test system is HCV 1b-377-neo replicon cells. As to the kind of experiment: HCV replicon assay, HCV 1b-377-neo replicon cells (1b FRET). The format is cell-based, Hepatitis C virus genotype 1b. The note with it: HCV 1b-377-neo replicon cells; HCV 1b genotype. The procedure, abridged:
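Compounds were tested in genotype 1b subgenomic replicon cells carrying a neomycin marker, alongside a matched replicon line with an NS5A Y2065H substitution that confers resistance to a reference NS5A inhibitor.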
(In general: Replicon systems follow genome replication, usually without infectious particles.)
For the molecule `O=C(C(c1ccccc1)N1C2CCC1CC2)N1CCC[C@H]1c1ncc(-c2ccc(-c3ccc(-c4cnc([C@@H]5CCCN5C(=O)C(c5ccccc5)N5C6CCC5CC6)[nH]4)cc3)cc2)[nH]1` (stereo partly drawn) [Example M1, 7,7′-(4,4′-biphenyldiylbis(1H-imidazole-5,2-diyl(2S)-2,1-pyrrolidinediyl(2-oxo-1-phenyl-2,1-ethanediyl)))bis(7-azabicyclo[2.2.1]heptane)], the “EC50 range against HCV 1b (Table 2, Range)” value is on record as “>A”.

As to `COC(=O)NC(C)(C)C(=O)N1CCC[C@H]1c1ncc(-c2ccc(-c3ccc(-c4cnc([C@@H]5CCCN5C(=O)C(C)(C)NC(=O)OC)[nH]4)cc3)cc2)[nH]1` [Example M7, methyl (2-((2S)-2-(5-(4′-(2-((2S)-1-(2-((methoxycarbonyl)amino)-2-methylpropanoyl)-2-pyrrolidinyl)-1H-imidazol-5-yl)-4-biphenylyl)-1H-imidazol-2-yl)-1-pyrrolidinyl)-1,1-dimethyl-2-oxoethyl)carbamate], the “EC50 range against HCV 1b (Table 2, Range)” value is “>A”.

The test is the same for the next values; noted with them: Hepatitis C virus, HCV 1b-377-neo replicon cells; HCV 1b genotype; read-out: EC50 range against HCV 1b (Table 2, Range).
On to `COC(=O)N[C@H](C(=O)N1CCC[C@H]1c1ncc(-c2ccc(-c3ccc(-c4[nH]c([C@@H]5CCCN5C(=O)[C@@H](NC(=O)OC)C(C)C)nc4C(F)(F)F)cc3)cc2)[nH]1)C(C)C` [Example J39, methyl ((1S)-1-(((2S)-2-(5-(4′-(2-((2S)-1-((2S)-2-((methoxycarbonyl)amino)-3-methylbutanoyl)-2-pyrrolidinyl)-1H-imidazol-5-yl)-4-biphenylyl)-4-(trifluoromethyl)-1H-imidazol-2-yl)-1-pyrrolidinyl)carbonyl)-2-methylpropyl)carbamate], for which the EC50 – broadly, the concentration that produces a half-maximal response – lay in the range of 0.001 to 0.999 nM.

With `CCN(CC)[C@@H](C(=O)N1CCC[C@H]1c1ncc(-c2ccc(-c3ccc(-c4[nH]c([C@@H]5CCCN5C(=O)[C@@H](c5ccccc5)N(CC)CC)nc4C(F)(F)F)cc3)cc2)[nH]1)c1ccccc1` [Example J40], the EC50 fell in the range of 0.001 to 0.999 nM.

Take `COC(=O)N[C@H](C(=O)N1CCC[C@H]1c1ncc(-c2ccc(-c3ccc(-c4[nH]c([C@@H]5CCCN5C(=O)[C@@H](NC(=O)OC)C5CC5)nc4C(F)(F)F)cc3)cc2)[nH]1)C1CC1` [Example J41, methyl ((1S)-1-cyclopropyl-2-((2S)-2-(5-(4′-(2-((2S)-1-((2S)-2-cyclopropyl-2-((methoxycarbonyl)amino)acetyl)-2-pyrrolidinyl)-1H-imidazol-5-yl)-4-biphenylyl)-4-(trifluoromethyl)-1H-imidazol-2-yl)-1-pyrrolidinyl)-2-oxoethyl)carbamate]: the EC50 was 0.001 to 0.999 nM.

As for `COC(=O)N[C@H](C(=O)N1CCC[C@H]1c1ncc(-c2ccc(-c3ccc(-c4[nH]c([C@@H]5CCCN5C(=O)[C@@H](NC(=O)OC)[C@@H](C)OC)nc4C(F)(F)F)cc3)cc2)[nH]1)[C@@H](C)OC` [Example J42, methyl ((1S,2R)-2-methoxy-1-(((2S)-2-(5-(4′-(2-((2S)-1-(N-(methoxycarbonyl)-O-methyl-L-threonyl)-2-pyrrolidinyl)-4-(trifluoromethyl)-1H-imidazol-5-yl)-4-biphenylyl)-1H-imidazol-2-yl)-1-pyrrolidinyl)carbonyl)propyl)carbamate], the EC50 is 0.001 to 0.999 nM.

For `COC(=O)N[C@@H](C)C(=O)N(C)[C@@H](C)c1ncc(-c2ccc(-c3ccc(-c4[nH]c([C@@H]5CCCN5C(=O)[C@H](C)NC(=O)OC)nc4C(F)(F)F)cc3)cc2)[nH]1` [Example J42.a, methyl ((1S)-2-((2S)-2-(5-(4′-(2-((1S)-1-((N-(methoxycarbonyl)-L-alanyl)(methyl)amino)ethyl)-1H-imidazol-5-yl)-4-biphenylyl)-4-(trifluoromethyl)-1H-imidazol-2-yl)-1-pyrrolidinyl)-1-methyl-2-oxoethyl)carbamate], the EC50 lay within 0.001 to 0.999 nM.

`CCN(CC)[C@@H](C(=O)N1CCC[C@H]1c1ncc(-c2ccc(-c3ccc(-c4[nH]c([C@@H]5CCCN5C(=O)[C@H](C)NC(=O)OC)nc4C(F)(F)F)cc3)cc2)[nH]1)c1ccccc1` [Example J45, methyl ((1S)-2-((2S)-2-(5-(4′-(2-((2S)-1-((2R)-2-(diethylamino)-2-phenylacetyl)-2-pyrrolidinyl)-1H-imidazol-5-yl)-4-biphenylyl)-4-(trifluoromethyl)-1H-imidazol-2-yl)-1-pyrrolidinyl)-1-methyl-2-oxoethyl)carbamate]: the EC50 was in the range of 0.001 to 0.999 nM.

As to `COC(=O)N[C@@H](C(=O)N1CCC[C@H]1c1ncc(-c2cnc(-c3ccc(-c4[nH]c([C@@H]5CCCN5C(=O)[C@H](NC(=O)OC)c5ccccc5)nc4C(F)(F)F)cc3)nc2)[nH]1)c1ccccc1` [Example J46, methyl ((1R)-2-((2S)-2-(5-(4-(5-(2-((2S)-1-((2R)-2-((methoxycarbonyl)amino)-2-phenylacetyl)-2-pyrrolidinyl)-1H-imidazol-5-yl)-2-pyrimidinyl)phenyl)-4-(trifluoromethyl)-1H-imidazol-2-yl)-1-pyrrolidinyl)-2-oxo-1-phenylethyl)carbamate], the EC50 lay in the range of 0.001 to 0.999 nM.

`CCN(CC)[C@@H](C(=O)N1CCC[C@H]1c1ncc(-c2cnc(-c3ccc(-c4[nH]c([C@@H]5CCCN5C(=O)[C@@H](c5ccccc5)N(CC)CC)nc4C(F)(F)F)cc3)nc2)[nH]1)c1ccccc1` [Example J47, (1R)-2-((2S)-2-(5-(4-(5-(2-((2S)-1-((2R)-2-(diethylamino)-2-phenylacetyl)-2-pyrrolidinyl)-1H-imidazol-5-yl)-2-pyrimidinyl)phenyl)-4-(trifluoromethyl)-1H-imidazol-2-yl)-1-pyrrolidinyl)-N,N-diethyl-2-oxo-1-phenylethanamine]: the EC50 was in the range of 0.001 to 0.999 nM.

For `COC(=O)N[C@H](C(=O)N1CCC[C@H]1c1ncc(-c2cnc(-c3ccc(-c4[nH]c([C@@H]5CCCN5C(=O)[C@@H](NC(=O)OC)C(C)C)nc4C(F)(F)F)cc3)nc2)[nH]1)C(C)C` [Example J48, methyl ((1S)-1-(((2S)-2-(5-(2-(4-(2-((2S)-1-((2S)-2-((methoxycarbonyl)amino)-3-methylbutanoyl)-2-pyrrolidinyl)-4-(trifluoromethyl)-1H-imidazol-5-yl)phenyl)-5-pyrimidinyl)-1H-imidazol-2-yl)-1-pyrrolidinyl)carbonyl)-2-methylpropyl)carbamate], the EC50 lay in the range of 0.001 to 0.999 nM.

For the molecule `COC(=O)N[C@H](C(=O)N1CCC[C@H]1c1ncc(-c2cnc(-c3ccc(-c4[nH]c([C@@H]5CCCN5C(=O)[C@@H](NC(=O)OC)C5CC5)nc4C(F)(F)F)cc3)nc2)[nH]1)C1CC1` [Example J49, methyl ((1S)-1-cyclopropyl-2-((2S)-2-(5-(4-(5-(2-((2S)-1-((2S)-2-cyclopropyl-2-((methoxycarbonyl)amino)acetyl)-2-pyrrolidinyl)-1H-imidazol-5-yl)-2-pyrimidinyl)phenyl)-4-(trifluoromethyl)-1H-imidazol-2-yl)-l-pyrrolidinyl)-2-oxoethyl)carbamate], the EC50 was 0.001 to 0.999 nM.

For `COC(=O)N[C@@H](C)C(=O)N1CCC[C@H]1c1ncc(-c2cnc(-c3ccc(-c4[nH]c([C@@H]5CCCN5C(=O)[C@H](C)NC(=O)OC)nc4C(F)(F)F)cc3)nc2)[nH]1` [Example J50, methyl ((1S)-2-((2S)-2-(5-(4-(5-(2-((2S)-1-(N-(methoxycarbonyl)-L-alanyl)-2-pyrrolidinyl)-1H-imidazol-5-yl)-2-pyrimidinyl)phenyl)-4-(trifluoromethyl)-1H-imidazol-2-yl)-1-pyrrolidinyl)-1-methyl-2-oxoethyl)carbamate], the EC50 is 0.001 to 0.999 nM.

For `O=C(C(c1ccccc1)N1C2CCC1CC2)N1CCC[C@H]1c1ncc(-c2ccc(-c3ccc(-c4cnc([C@@H]5CCCN5C(=O)C(c5ccccc5)N5C6CCC5CC6)[nH]4)cc3)cc2)[nH]1` (stereo partly drawn) [Example M2, 7,7′-(4,4′-biphenyldiylbis(1H-imidazole-5,2-diyl(2S)-2,1-pyrrolidinediyl(2-oxo-1-phenyl-2,1-ethanediyl)))bis(7-azabicyclo[2.2.1]heptane)], the EC50 is 1 to 99 nM.

As for `CCN(C1CC1)[C@@H](C(=O)N1CCC[C@H]1c1ncc(-c2ccc(-c3ccc(-c4cnc([C@@H]5CCCN5C(=O)[C@@H](c5ccccc5)N(CC)C5CC5)[nH]4)cc3)cc2)[nH]1)c1ccccc1` [Example M3, N,N′-(4,4′-biphenyldiylbis(1H-imidazole-5,2-diyl(2S)-2,1-pyrrolidinediyl((1R)-2-oxo-1-phenyl-2,1-ethanediyl)))bis(N-ethylcyclopropanamine)], the EC50 fell in the range of 1 to 99 nM.

For `CCOC(=O)N[C@H](C)C(=O)N1CCC[C@H]1c1ncc(-c2ccc(-c3ccc(-c4cnc([C@@H]5CCCN5C(=O)[C@@H](C)NC(=O)OCC)[nH]4)cc3)cc2)[nH]1` [Example M4, ethyl ((1R)-2-((2S)-2-(5-(4′-(2-((2S)-1-(N-(ethoxycarbonyl)-D-alanyl)-2-pyrrolidinyl)-1H-imidazol-5-yl)-4-biphenylyl)-1H-imidazol-2-yl)-1-pyrrolidinyl)-1-methyl-2-oxoethyl)carbamate], the EC50 lay within 100 to 999 nM.

`CCOC(=O)N[C@@H](C)C(=O)N1CCC[C@H]1c1ncc(-c2ccc(-c3ccc(-c4cnc([C@@H]5CCCN5C(=O)[C@H](C)NC(=O)OCC)[nH]4)cc3)cc2)[nH]1` [Example M5, ethyl ((1S)-2-((2S)-2-(5-(4′-(2-((2S)-1-(N-(ethoxycarbonyl)-L-alanyl)-2-pyrrolidinyl)-1H-imidazol-5-yl)-4-biphenylyl)-1H-imidazol-2-yl)-1-pyrrolidinyl)-1-methyl-2-oxoethyl)carbamate]: the EC50 was 1000 to 10000 nM.

On to `COC(=O)NC1(C(=O)N2CCC[C@H]2c2ncc(-c3ccc(-c4ccc(-c5cnc([C@@H]6CCCN6C(=O)C6(NC(=O)OC)CC6)[nH]5)cc4)cc3)[nH]2)CC1` [Example M6, dimethyl (4,4′-biphenyldiylbis(1H-imidazole-5,2-diyl(2S)-2,1-pyrrolidinediylcarbonyl-1,1-cyclopropanediyl))bis-carbamate], for which the EC50 fell in the range of 1000 to 10000 nM.

For `C[C@H](C(=O)N1CCC[C@H]1c1ncc(-c2ccc(-c3ccc(-c4cnc([C@@H]5CCCN5C(=O)[C@@H](C)N(C)C)[nH]4)cc3)cc2)[nH]1)N(C)C` [Example M8, (2R,2′R)-1,1′-(4,4′-biphenyldiylbis(1H-imidazole-5,2-diyl(2S)-2,1-pyrrolidinediyl))bis(N,N-dimethyl-1-oxo-2-propanamine)], the EC50 fell in the range of 1000 to 10000 nM.
